Reference: patent US12729377B2, “RNAi agents and compositions for inhibiting expression of angiopoietin-like 3 (ANGPTL3), and methods of use” (Arrowhead Pharmaceuticals, Inc., priority 2017, dated 2026)
In the oligonucleotide strings, read from the 5' end, every base follows the letter of its sugar. An asterisk marks phosphorothioate; unmarked linkages are phosphodiester. Other units and linkages are bracketed, terminal groups are in braces. A string of capitals states the bases alone. {NAG37} = tridentate N-acetyl-galactosamine targeting ligand, structure (NAG37)s; [invAb] = inverted abasic unit; m = 2'-O-methyl; f = 2'-fluoro

Tests used:
ANGPTL3 protein [1] = test: Example 2: serum ANGPTL3 protein by ELISA in mice; type: in vivo, C57bl/6 mice; conditions: for Avg ANGPTL3 (Average ANGPTL3 Protein Normalized to Pre-Treatment and Control): 3.0 mg/kg single subcutaneous dose on day 1, serum, female C57bl/6 mice
Description: (§1) To assess the in vivo activity of ANGPTL3 RNAi agents that are designed to target different positions on the ANGPTL3 gene, six- to eight-week-old female C57bl/6 mice were used. Pre-dose serum samples were taken at day −1 after a four hour fast. At day 1, each mouse was given a single subcutaneous administration of 200 μl containing either 3 mg/kg (mpk) of an ANGPTL3 RNAi agent in D5W (dextrose in 5% water), or control (D5W) with no RNAi agent, according to the dosing groups recited in Table 7.
(§2) Each of the RNAi agents included a modified sequence and an N-acetyl-galactosamine-containing targeting ligand conjugated to the 5′ terminal end of the sense strand. (See Tables 3, 4, and 5 for modified sequences and targeting ligand structures). The injections were performed between the skin and muscle (i.e. subcutaneous injections) into the loose skin over the neck and shoulder area. Three (3) mice in each group were tested (n=3). Serum was collected on days 8, […], 22, 29, and day 36 (for Groups 1 and 5-11 only). Mice were fasted for four hours prior to each collection. ANGPTL3 protein levels in serum were measured by ELISA assay (R&D Systems), according to the manufacturer's recommendations. Triglycerides, high-density lipoprotein (HDL), and total cholesterol in serum were measured on a Cobas® Integra 400 (Roche Diagnostics), according to the manufacturer's recommendations.
(§3) The ANGPTL3 protein levels, triglyceride levels, HDL levels, and total cholesterol levels for each animal were normalized. For normalization, the level of ANGPTL3 protein, triglyceride, HDL, and total cholesterol, respectively, for each animal at a time point, was divided by the pre-treatment level of expression in that animal (in this case at day −1) to determine the ratio of expression “normalized to pre-treatment.” Expression at a specific time point was then normalized to the D5W control group by dividing the “normalized to pre-treatment” ratio for an individual animal by the mean “normalized to pretreatment” ratio of all mice in the D5W control group.

ANGPTL3 gene [2] = test: Example 8: serum LDL in cynomolgus monkeys; type: in vivo, cynomolgus macaque (Macaca fascicularis); conditions: 3.0 mg/kg single SC injection day 1, cynos, n=2
Description: (§4) Additional ANGPTL3 RNAi agents were evaluated in cynomolgus monkeys. On day 1, cynomolgus macaque (Macaca fascicularis) primates (also referred to herein as “cynos”) were administered a single subcutaneous injection of 0.3 mL/kg (approximately 1-2 mL volume, depending on animal mass) containing 3.0 mg/kg of one of ANGPTL3 RNAi agent AD05577, AD05307, AD05488, AD05654, or AD05659, each formulated in saline.
(§5) Two (2) cynos in each group were tested (n=2). Blood samples were drawn and serum samples were analyzed on days −8 (pre-dose), 1 (pre-dose), 8, 15, 22, 29, and 36. Cynos were fasted overnight prior to each collection. ANGPTL3 protein levels in serum were measured by ELISA assay (R&D Systems), according to the manufacturer's recommendations. Triglycerides, total cholesterol, high-density lipoprotein (HDL), and low-density lipoprotein (LDL) in serum were measured on a Cobas® Integra 400 (Roche Diagnostics), according to the manufacturer's recommendations.
(§6) The ANGPTL3 protein levels, triglyceride levels, total cholesterol levels, HDL levels, and LDL levels for each animal were normalized. For normalization, the level of ANGPTL3 protein, triglyceride, HDL, and total cholesterol, respectively, for each animal at a time point, was divided by the average pre-treatment level of expression in that animal (in this case at days −8, and 1 (pre-dose)) to determine the ratio of expression “normalized to pre-treatment.”

ANGPTL3 gene [3] = test: Example 2: serum triglycerides in mice; type: in vivo
Description: as §1, §2, §3

ANGPTL3 protein [4] = test: Example 8: serum ANGPTL3 protein by ELISA in cynomolgus monkeys; type: in vivo, cynomolgus macaque (Macaca fascicularis); conditions: for Avg ANGPTL3 protein normalized to pre-treatment: 3.0 mg/kg single SC injection day 1, cynos, n=2
Description: as §4, §5, §6

## AD05307: RNAi agent duplex: antisense AM07001-AS, sense AM07000-SS (chain 1 mU*fU*mU*fGmAfAmUfUmAfAmUfGmUfCmCfAmUfGmGmG*mC; chain 2 {NAG37}*[invAb]*mGmCmCmCmAmUmGmGfAfCfAmUmUmAmAmUmUmCmAmAmA*[invAb])
ANGPTL3 protein [1]; Day 8
  Avg ANGPTL3 (Average ANGPTL3 Protein Normalized to Pre-Treatment and Control): 0.117
ANGPTL3 protein [1]; Day 13
  Avg ANGPTL3 (Average ANGPTL3 Protein Normalized to Pre-Treatment and Control): 0.120
ANGPTL3 protein [1]; Day 22
  Avg ANGPTL3 (Average ANGPTL3 Protein Normalized to Pre-Treatment and Control): 0.134
ANGPTL3 protein [1]; Day 29
  Avg ANGPTL3 (Average ANGPTL3 Protein Normalized to Pre-Treatment and Control): 0.206
ANGPTL3 protein [1]; Day 36
  Avg ANGPTL3 (Average ANGPTL3 Protein Normalized to Pre-Treatment and Control): 0.216
ANGPTL3 protein [1]; day 29, single 3 mg/kg subcutaneous, C57bl/6 mice
  ANGPTL3 protein normalized to pre-treatment and control: 0.206
ANGPTL3 gene [2]; Day 8
  Average LDL Normalized to Pre-Treatment: 1.008
ANGPTL3 gene [2]; Day 15
  Average LDL Normalized to Pre-Treatment: 1.102
ANGPTL3 gene [2]; Day 22
  Average LDL Normalized to Pre-Treatment: 0.971
ANGPTL3 gene [2]; Day 29
  Average LDL Normalized to Pre-Treatment: 1.106
ANGPTL3 gene [2]; Day 36
  Average LDL Normalized to Pre-Treatment: 0.894
ANGPTL3 gene [3]; Day 8, 3.0 mg/kg single subcutaneous dose on day 1, female C57bl/6 mice
  Avg TG (Average Triglycerides Normalized to Pre-Treatment and Control): 0.504
ANGPTL3 gene [3]; Day 13, 3.0 mg/kg single subcutaneous dose on day 1, female C57bl/6 mice
  Avg TG (Average Triglycerides Normalized to Pre-Treatment and Control): 0.655
ANGPTL3 gene [3]; Day 22, 3.0 mg/kg single subcutaneous dose on day 1, female C57bl/6 mice
  Avg TG (Average Triglycerides Normalized to Pre-Treatment and Control): 0.459
ANGPTL3 gene [3]; Day 29, 3.0 mg/kg single subcutaneous dose on day 1, female C57bl/6 mice
  Avg TG (Average Triglycerides Normalized to Pre-Treatment and Control): 0.629
ANGPTL3 gene [3]; Day 36, 3.0 mg/kg single subcutaneous dose on day 1, female C57bl/6 mice
  Avg TG (Average Triglycerides Normalized to Pre-Treatment and Control): 0.602
ANGPTL3 protein [4]; Day 8
  Avg ANGPTL3 protein normalized to pre-treatment: 0.486
ANGPTL3 protein [4]; Day 15
  Avg ANGPTL3 protein normalized to pre-treatment: 0.402
ANGPTL3 protein [4]; Day 22
  Avg ANGPTL3 protein normalized to pre-treatment: 0.726
ANGPTL3 protein [4]; Day 29
  Avg ANGPTL3 protein normalized to pre-treatment: 0.518
ANGPTL3 protein [4]; Day 36
  Avg ANGPTL3 protein normalized to pre-treatment: 0.392
ANGPTL3 protein [4]; all measured time points, single 3.0 mg/kg subcutaneous, cynomolgus monkeys
  reduction in ANGPTL3 protein compared to pre-treatment: reduction
